One assay deals with EHS collagen IV. Put plainly: Chlorination of type IV collagen by HOCl, N-chloramine assay. Type of assay: biochemical, murine. The settings on record: HOCl with equimolar PM, 1 h.
For assay [1], the system named is integrin α1β1 binding to collagen IV. The assay can be described thus: Modification of collagen IV and integrin binding assay (solid phase). Further details: species or system Human. The settings on record: 0.1 mM HOCl or HOBr with 0.1 mM PM, 1 h; integrin 1 μg/mL, 2 h at 30° C. Here is the method:
FIG. 6B. EHS Collagen IV was coated onto 96-well plate overnight at 4° C. Collagen IV was incubated with 0.1 mM HOCl or HOBr either with or without 0.1 mM PM for 1 h at 37° C. Collagen IV was then incubated with 1 μg/mL of integrin α1β1 for 2 h at 30° C. Integrin binding was detected in solid phase binding assay using integrin α1β1 antibody. The bars represent background-subtracted […] binding±SD (n=4). *P<0.05, control vs. HOCl or HOBr; **P<0.05, HOCl or HOBr vs. HOCl+PM or HOBr+PM.
Modification of Collagen IV and Integrin Binding Assay—20 μg/mL of type IV collagen in 20 mM sodium phosphate buffer, 7.5, was immobilized on 96 well plates at 4° C. overnight. Nonspecific binding sites were blocked with 1% BSA in TBS for 2 hr at 30° C. as previously described. Wells were washed five times with either TBS or 100 mM sodium phosphate, pH 7.5, before being incubated in the same buffer with or without HOCl/HOBr alone or HOCl/l HOBr plus PM. […] After extensive washing, the bound antibodies were detected using alkaline phosphatase-conjugated anti-mouse IgG antibodies. p-Nitrophenyl phosphate substrate (Sigma) was added to the wells, and absorbance was read at 410 nm. Readings from the samples containing EDTA were subtracted from all the data to obtain the baseline corrected magnesium dependent binding.

Assay [2] deals with RNase. The assay can be described thus: LC-MS/MS analysis of RNase modifications (halogenation of Tyr-92 and Tyr-97). The settings on record: RNase with HOCl or HOBr, with or without PM. Type of assay: biochemical. On the procedure:
FIG. 3A. Modification of functionally important chlorinated Tyr species (Y-92 and Y-97) in RNase by HOCl and protection by PM. *P<0.05, control vs. HOCl (n=3); **P<0.05, HOCl vs. HOCl+PM (n=3).
FIG. 3B. Modification of functionally important chlorinated Tyr species (Y-92 and Y-97) in RNase by HOBr and protection by PM. *P<0.05, control vs. HOBr; **P<0.05, HOBr vs. HOBr+PM.
LC-MS/MS analysis of RNase modifications—The site-specific modifications in RNase were analyzed by tandem mass spectrometry. The samples were prepared using the spin filter protocol for proteomic analysis. RNase samples were digested either with trypsin. The data-dependent scanning was performed using a LTQ Orbitrap^TM (Thermo Fischer Scientific, San Jose, Calif.) mass spectrometer equipped with an Eksigent AS1 autosampler and an Eksigent 1D+HPLC pump attached directly to the instrument's nanospray source. The peptides were separated on a capillary tip, 100 μm×18 cm, packed with C18 resin (Jupiter C18, 3 μm, 300 Å, Phenomenex, Torrance, Calif.) using an inline vented trapping column that was 100 μm×6 cm. […]
The data generated from the data-dependent LC-MS/MS experiments were analyzed using Sequest. […] The peak containing the peptide of interest was extracted from the chromatogram and the area of the peak was determined using Xcalibur™ software. […]

The target in assay [3] is T1, RNase (Bos taurus, UniProt P61823).
T1 construct: purchased Worthington Biochemical Corporation
T1 sequence (P61823 27-150): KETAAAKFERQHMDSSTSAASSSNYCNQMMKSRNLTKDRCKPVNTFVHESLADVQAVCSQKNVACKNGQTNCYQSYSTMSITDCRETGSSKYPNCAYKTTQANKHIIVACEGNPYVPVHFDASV
Put plainly: Measurements of RNase activity after incubation with HOCl, HOBr or PM. Type of assay: biochemical. The settings on record: for effect on RNase activity: RNase 15 μg/mL incubated with different concentrations of the substance at 37° C. for 2 h. On the procedure: FIG. 1. […] RNase (15 μg/mL) was incubated alone or with different concentrations of HOCl, HOBr or PM at 37° C. for 2 h. Enzymatic activity was determined as described under Experimental Procedures.
Measurements of RNase Activity—RNase activity was determined by measuring the formation of acid-soluble oligonucleotide as described by Kalnitsky et al, with some modifications previously described by Voziyan et al. For the assay, 100 μL of 3 μg/mL RNase in 100 mM sodium acetate, pH 5.0, was mixed with 100 μL of 1% yeast RNA in the same buffer. After the incubation at 37° C. for 5 min, the reaction was stopped by the addition of 100 μL of an ice-cold solution of 0.8% lanthanum nitrate in 18% perchloric acid. The incubations were kept on ice for 5 min to ensure complete precipitation of undigested RNA and then centrifuged at 12000 g for 10 min. An aliquot of the supernatant (20 μL) was diluted to 1 mL with distilled water, the amount of digested (solubilized) RNA was determined by measuring the absorbance at 260 nm. The activity of RNase incubated either alone or with PM or an amino acid substitute at 37° C. was monitored separately and used as a reference for each incubation time.

Protocol for EHS collagen IV: N-Chloramine Assay/ TMB Assay—The presence of N-chloramines were determined by the method of Witko et al. [3] and Dypbukt et al. [4]. The former method is based on the colorimetric measurement of triiodide ions formed by the oxidation of potassium iodide (KI) in solution. Chloroamine-T, a commercially available source of N-chloramine, was used to calibrate the assay. 100 mM chloramine-T solution was made fresh in distilled H2O. The 100 mM chloramines-T was diluted to final concentrations ranging from 20 to 100 μM immediately before use. The direct oxidation of Kl by NaOCl was also determined and these values were subtracted as background from the corresponding treated samples. The resulting difference represented the amount of N-chloramine present in each sample. In the latter method the developing reagent was composed of 2 mM TMB in 400 mM acetate buffer, pH 5.4, containing 10% dimethlyforamide and 100 μM sodium iodide. This solution was prepared by dissolving TMB in 100% DMF, diluting with acetate buffer to get the desired final concentration of TMB, and then adding sodium iodide. When the developing reagent was mixed with the solutions of chloramines, the final concentration of TMB was always at least 10 times that of the concentration of chloramines. This prevented further oxidation of the blue product. […]

Regarding `Cc1ncc(CO)c(CN)c1O` [PM, Pyridoxamine], the “chlorination of collagen IV by hypochlorous acid (protein chloramine content)” value with EHS collagen IV is reported as “significantly inhibited chlorination”. Moreover, the “binding of integrin α1β1 to collagen IV in the presence of HOCl or HOBr” value in assay [1] is “protected binding”. In addition, the “halogenation of Tyr-92 and Tyr-97 residues in RNase” value in the assay with RNase [2] was “inhibited halogenation”. Besides, on RNase [3], the “effect on RNase activity” value is on record as “no effect on activity”. For the same compound, on RNase [3] (RNase with HOCl or HOBr plus PM), the “protection of RNase enzymatic activity against hypohalous acids” value is listed as “protected enzymatic activity”.
Consider `OCl` [HOCl, hypochlorous acid], for which the “effect on RNase activity” value at RNase [3] is given as “inhibit RNase activity”.
Still for that read-out and setting: for `OBr` [HOBr, hypobromous acid] the value was “inhibit RNase activity”.

Values taken from patent publication US20130017616A1, “Methods For Treating Inflammation” (Vanderbilt University - Center for Technology Transfer and …, priority 2011, published 2013).
